ChEMBL document CHEMBL1151049, “Bis-quinolinium cyclophanes: A novel class of potent blockers of the apamin-sensitive Ca2+-activated K+ channel” (Bioorg Med Chem Lett, 1997)
pIC50: −log10 of the molar value.

Key:
[1] = biological target: Small conductance calcium-activated potassium channel protein 2 (Rattus norvegicus, UniProt P70604); assay: Inhibitory concentration of compound required for SKCa blocking action was assessed from its ability to inhibit After hyperpolarisation (AHP) in cultured rat sympathetic neurons; assay type: functional, cell-based, Sympathetic neuron
[2] = species: Rattus norvegicus; assay: Equieffective molar ratio (EMR) is ratio of concentrations of compound and dequalinium causing 50% inhibition of the After hyperpolarisation (AHP) in rat sympathetic neurons; assay type: functional, Sympathetic neuron

Chain of Small conductance calcium-activated potassium channel protein 2 (P70604 whole entry): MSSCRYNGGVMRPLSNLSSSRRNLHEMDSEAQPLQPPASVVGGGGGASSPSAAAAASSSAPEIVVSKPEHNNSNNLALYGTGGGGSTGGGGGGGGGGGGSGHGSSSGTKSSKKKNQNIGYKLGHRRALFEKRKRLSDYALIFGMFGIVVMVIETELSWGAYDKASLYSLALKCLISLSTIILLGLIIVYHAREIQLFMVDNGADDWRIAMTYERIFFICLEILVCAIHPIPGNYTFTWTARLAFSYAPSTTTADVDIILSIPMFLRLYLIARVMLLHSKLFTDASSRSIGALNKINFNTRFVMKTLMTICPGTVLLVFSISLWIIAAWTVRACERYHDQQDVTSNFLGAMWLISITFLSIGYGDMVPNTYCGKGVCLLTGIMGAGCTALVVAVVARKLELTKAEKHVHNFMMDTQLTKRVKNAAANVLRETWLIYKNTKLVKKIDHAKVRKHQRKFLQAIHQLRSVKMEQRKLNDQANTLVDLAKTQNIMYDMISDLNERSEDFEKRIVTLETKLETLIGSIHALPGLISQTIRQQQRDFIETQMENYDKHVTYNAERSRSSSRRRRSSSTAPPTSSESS

Row | pIC50 [1] | Compound | EMR [2]
1 | 6.35 | Nc1cc[n+](Cc2ccc(Cc3ccc(C[n+]4ccc(N)c5ccccc54)cc3)cc2)c2ccccc12 | 0.39
2 | 6.15 | c1ccc(C[n+]2ccc(NCCCCCCCCCCNc3cc[n+](Cc4ccccc4)c4ccccc34)c3ccccc32)cc1 | 1
3 | 6.82 | C1=C\c2ccc(cc2)C[n+]2ccc(c3ccccc32)NCCCCCCCCCCNc2cc[n+](c3ccccc23)Cc2ccc/1cc2 | 0.28
4 | 6.51 | Nc1cc[n+](Cc2ccc3c(c2)Cc2cc(C[n+]4ccc(N)c5ccccc54)ccc2-3)c2ccccc12 | 0.33
5 | 7.05 | c1ccc2c(c1)c1cc[n+]2Cc2ccc3c(c2)Cc2cc(ccc2-3)C[n+]2ccc(c3ccccc32)NCCCCCCCCCCN1 | 0.12
6 | 7.10 | c1ccc2c(c1)c1cc[n+]2Cc2ccc(cc2)Cc2ccc(cc2)C[n+]2ccc(c3ccccc32)NCCCCCCCCCCN1 [UCL-1530] | 0.16
7 | 6.72 | Nc1cc[n+](Cc2ccc(/C=C\c3ccc(C[n+]4ccc(N)c5ccccc54)cc3)cc2)c2ccccc12 | 0.24
8 | 6.77 | c1ccc2c(c1)c1cc[n+]2Cc2ccc(cc2)-c2ccc(cc2)C[n+]2ccc(c3ccccc32)NCCCCCCCCCCN1 | 0.28
9 | 6.96 | c1cc2cc(c1)-c1cccc(c1)C[n+]1ccc(c3ccccc31)NCCCCCCCCCCNc1cc[n+](c3ccccc13)C2 | 0.28
10 | 6.54 | Nc1cc[n+](Cc2cccc(-c3cccc(C[n+]4ccc(N)c5ccccc54)c3)c2)c2ccccc12 | 0.55
11 | 6.74 | c1ccc2c(c1)c1cc[n+]2Cc2ccc(cc2)CCc2ccc(cc2)C[n+]2ccc(c3ccccc32)NCCCCCCCCCCN1 | 0.58
12 | 6.39 | Nc1cc[n+](Cc2ccc(CCc3ccc(C[n+]4ccc(N)c5ccccc54)cc3)cc2)c2ccccc12 | 0.71

Row | Compound | pIC50 [1] | EMR [2]
13 | Nc1cc[n+](Cc2ccc(-c3ccc(C[n+]4ccc(N)c5ccccc54)cc3)cc2)c2ccccc12 | 6.42 | 0.4
